Laboratory results published in patent publication US4761398A, “Method of inducing birds to molt” (Embrex, Inc., priority 1986, dated 1988).

Tests used:
[1] = tested on: single combed White Leghorn hens; assay: Induction of molt by LHRH receptor ligand; type: in vivo; conditions: all treated groups, 25 micrograms/day
Procedure: (§1) After the two week pre-molt adjustment period, the hens were randomly assigned to each of eight different groups. These treatment groups were as follows: (1) control, (2) forced molt, (3) chemical molt-injected, (4) vehicle control-injected, (5) chemical molt-microcapsules A, (6) vehicle control-microcapsules A, (7) chemical molt-microcapsules B, and (8) vehicle control-microcapsules B.
(§2) The hens then received a seven day pre-molt treatment of a 24 hour light, zero hour dark photoperiod. On day 14 of the experiment the photoperiod was then reduced to natural day length for all treatments. Feed was made available ad libitum for all groups except the forced molt group. The forced molt group was deprived of food, but not of water, until a 30% body weight loss occurred (10 days of fasting).
[D-Trp^6 ]LHRH was used as the LHRH receptor ligand for the chemical molt groups. The "chemical molt-injected" group received intramuscular (breast) injections of 25 micrograms/day of [D-Trp^6 ]LHRH for 10 consecutive days beginning on day 14. Alternate pectoral (breast) areas were injected each day. […]
Microcapsules were suspended in disposable syringes in vehicle containing 2% carboxymethyl cellulose and 1% "TWEEN 20" in water. After thoroughly mixing the suspension, aliquots calculated to have released a dose of 25 micrograms/day for 15 consecutive days were injected into the breast muscle of the hens. […]

[2] = tested on: single combed White Leghorn hens; type: in vivo
From the text: as §1
(§3) [D-Trp^6 ]LHRH was used as the LHRH receptor ligand for the chemical molt groups. The "chemical molt-injected" group received intramuscular (breast) injections of 25 micrograms/day of [D-Trp^6 ]LHRH for 10 consecutive days beginning on day 14. Alternate pectoral (breast) areas were injected each day. The "chemical molt-microcapsule" groups received a single intramuscular (breast) injection of microencapsulated [D-Trp^6 ]LHRH on day zero. This preparation of microcapsules provided a controlled release of 25 micrograms [D-Trp^6 ]LHRH per day for 15 consecutive days.
(§4) On day 14, the microcapsule injected groups received intramuscular injections of lactide/glycolide copolymer microcapsules which had [D-Trp^6 ]LHRH incorporated therein. The ligand-containing microcapsules administered the "Microcapsules A" group were prepared and supplied by Debiopharm (Lausanne, Switzerland). These microcapsules were prepared by a phase-separation process to produce a free-flowing powder of spherical particles consisting of [D-Trp^6 ]LHRH (2% wt/wt) distributed within a polymeric matrix of 53:47(mol %) poly(DL-lactide-co-glycolide) (98% wt/wt) with an inherent viscosity of 0.7 dl/g. The microcapsules were 50 micrometers or less in diameter. […] Photomicrographs of similar microcapsules are presented in T. W. Redding, et al., Proc. Natl. Acad. Sci. U.S.A., 81, 5845 (Sept. 1984).
After the forced molt group achieved a 30% body weight loss, i.e., after 10 days of fasting, six hens from each group were necropsied. The liver, abdominal adipose tissue (fat pad), ovary plus ova and oviduct weights were measured. The remaining forced molt hens received a limited quantity of feed for two days, and were then fed ad libitum. For all groups, body weight and feed consumption were measured weekly. The lighting regime was increased, at weekly intervals, from natural day length to 17 hour light: seven hour dark. For the forced molt and chemical molt groups, when the first egg was produced after the molt, body weights were measured and body weights taken for the 10 selected birds.

[3] = tested on: single combed White Leghorn hens; assay: Mortality; type: in vivo
From the text: as §1, §3
On day 14, the microcapsule injected groups received intramuscular injections of lactide/glycolide copolymer microcapsules which had [D-Trp^6 ]LHRH incorporated therein. The ligand-containing microcapsules administered the "Microcapsules A" group were prepared and supplied by Debiopharm (Lausanne, Switzerland). […]

[4] = biological target: T1, LHRH receptor (Homo sapiens, UniProt P30968); conditions: described in U.S. Pat. No. 4,010,125; cited from earlier work
T1 sequence (P30968 1-328): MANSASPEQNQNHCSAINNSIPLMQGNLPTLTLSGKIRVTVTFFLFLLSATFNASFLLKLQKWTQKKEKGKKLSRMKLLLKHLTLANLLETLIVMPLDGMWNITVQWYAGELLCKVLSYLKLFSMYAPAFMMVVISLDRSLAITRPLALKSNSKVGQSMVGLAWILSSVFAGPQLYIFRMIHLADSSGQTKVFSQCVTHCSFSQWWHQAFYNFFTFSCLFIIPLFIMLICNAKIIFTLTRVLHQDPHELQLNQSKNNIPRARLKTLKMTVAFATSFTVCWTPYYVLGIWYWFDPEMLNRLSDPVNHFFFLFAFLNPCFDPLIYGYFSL

[5] = tested on: single combed White Leghorn hens; assay: Hen-day egg production; type: in vivo
Procedure: During the experiment, two birds were assigned to each cage (12"×18"). The hens were maintained in their cages for two weeks prior to the molt. They received a 17 hour light: 7 hour dark photoperiod throughout this phase of the experiment. During this time, the following parameters were measured:(a) body weight (weekly); (b) feed consumption (all hens received a common layer ration, and the feed consumed during this two week period was measured); (C) production records (daily); and (d), total egg weight, egg shell weight, and egg specific gravity (measured on three consecutive days each week). Serum samples were taken once, from 10 randomly selected hens from each treatment group, and saved for future study.
as §1, §2, §3, §4
Microcapsules were suspended in disposable syringes in vehicle containing 2% carboxymethyl cellulose and 1% "TWEEN 20" in water. After thoroughly mixing the suspension, aliquots calculated to have released a dose of 25 micrograms/day for 15 consecutive days were injected into the breast muscle of the hens. We weighed the microcapsules directly into disposable 3 ml syringes. The plunger of a plugged syringe containing microcapsules (without vehicle) was pulled back to the 1.5-2 cc mark. The hub of the syringe was then placed against a vortex mixer and the syringe vortexed rapidly for about 20 seconds, or until most of the clumps of microbeads were broken and distributed along the barrel of the syringe. An 18 gauge needle was then attached and 0.7 to 1.0 ml of […] injection vehicle was drawn into the syringe. With the needle in an upward position, the syringe was again placed against a vortex mixer and vortexed rapidly for 20 seconds, or until a suspension of microbeads was formed in the vehicle. […]

[6] = hens killed immediately after the molt, Day 23

**Q.** Which induction of molt [1] does the source give for [D-Trp^6 ]LHRH [D-Trp^6 --LHRH] here?
**A.** The induction of molt was “induced to molt”.

**Q.** And the “involution of reproductive tract” value ([2]; both treated groups)?
**A.** The value was “exhibited involution of their reproductive tracts”.

**Q.** What about the “Ovary Wt.” value [2, 6] of the same substance?
**A.** The value was 10.38 g.

**Q.** And the “Oviduct Wt.” value [2, 6]?
**A.** The value was 17.65 g.

**Q.** And the “Abdominal Adipose Tissue Wt.” value ([2]; in vivo)?
**A.** The value was 55.73 g.

**Q.** What about the “Body Wt.” value ([2]; in vivo) of the same substance?
**A.** The value was 1.784 kg.

**Q.** And the “MORTALITY: Number of Hens That Died” value ([3]; Evaluated from day 28 to day 94)?
**A.** Its value is 0.

**Q.** And the mortality in words ([3]; groups that received the ligand)?
**A.** Its mortality in words is “no mortality occurred”.

**Q.** And the duration of activity [4]?
**A.** Its duration of activity is “prolonged activity”.

**Q.** What about the “HEN-DAY EGG PRODUCTION Reported By Weeks” value ([5]; listed as Day 5) of the same substance?
**A.** The value was 61.508%.

**Q.** What about the “HEN-DAY EGG PRODUCTION Reported By Weeks” value ([5]; listed as Day 12) of the same substance?
**A.** The value was 26.984%.

**Q.** What about the “HEN-DAY EGG PRODUCTION Reported By Weeks” value ([5]; listed as Day 17) of the same substance?
**A.** Its value is 4.683%.

**Q.** What about the “HEN-DAY EGG PRODUCTION Reported By Weeks” value ([5]; listed as Day 22) of the same substance?
**A.** The value was 7.619%.

**Q.** And the “HEN-DAY EGG PRODUCTION Reported By Weeks” value ([5]; listed as Day 27)?
**A.** The value was 30.000%.

**Q.** What about the “HEN-DAY EGG PRODUCTION Reported By Weeks” value ([5]; listed as Day 33) of the same substance?
**A.** The value was 58.095%.

**Q.** What about the “HEN-DAY EGG PRODUCTION Reported By Weeks” value ([5]; listed as Day 40) of the same substance?
**A.** Its value is 63.333%.

**Q.** And the “HEN-DAY EGG PRODUCTION Reported By Weeks” value ([5]; listed as Day 47)?
**A.** Its value is 67.143%.

**Q.** And the “HEN-DAY EGG PRODUCTION Reported By Weeks” value ([5]; listed as Day 54)?
**A.** The value was 76.667%.

**Q.** What about the “HEN-DAY EGG PRODUCTION Reported By Weeks” value ([5]; listed as Day 61) of the same substance?
**A.** Its value is 80.000%.

**Q.** And the “HEN-DAY EGG PRODUCTION Reported By Weeks” value ([5]; listed as Day 75)?
**A.** The value was 76.667%.

**Q.** And the “HEN-DAY EGG PRODUCTION Reported By Weeks” value ([5]; listed as Day 82)?
**A.** The value was 73.889%.

**Q.** And the “HEN-DAY EGG PRODUCTION Reported By Weeks” value ([5]; listed as Day Zero)?
**A.** Its value is 63.889%.
